Laboratory results taken from paper PMC10308769, “First reported double drug–drug interaction in a cancer renal patient under everolimus treatment: therapeutic drug monitoring and review of literature” (European Journal of Medical Research, 2023).
“Also recorded” adds a separate entry of the source. Where two headings read alike, the source gives them in different places.

Columns and labels:
[1] = test system: renal cell carcinoma (RCC); experiment: Clinical course of the case patient: toxicities, response, PFS; type: in vivo
Description: A person with smoking and epilepsy history was diagnosed from a stage pT3a renal carcinoma in December 2015. Radical right nephrectomy was performed in February 2016. In September 2018, a right lung segmentectomy was practiced due to lepidic adenocarcinoma growth. On February 2021 progression was detected with right adrenal massive bleeding, hilar adenopathy and left renal adrenal metastasis. Nivolumab was initiated as first-line treatment in May 2021 for intermediate-risk clear-cell RCC. […] In December 2021, new progression was detected and second-line treatment with cabozantinib 60 mg daily was started.
(§1) This finding was discussed within the multidisciplinary team, including the oncologist and the pharmacist, and a TDM plan was planned. Method used for analysis was ultra-high-performance liquid chromatography coupled to tandem mass spectrometry.
Everolimus dose was increased from 10 mg QD to 15 mg daily (administered 10 mg, 1 h before breakfast and 5 mg, 1 h before dinner). […] However, a second dose adjustment was needed, 10 mg BID, administered before meals. Two weeks and a month later, new TDM were planned and Cminss were 10.6 ng/ml and 8.7 ng/ml, respectively (Fig. 2). […] Unfortunately, everolimus treatment was stopped on July 2022, due to lung progression, pleural effusion, and respiratory insufficiency, and finally patient died.

[2] = test system: CYP3A4; parameters: method as in lexicomp and drugs databases; conditions: ref lexicomp and drugs databases; cited from earlier work
[3] = Therapeutic drug monitoring of everolimus in the case patient (UHPLC-MS/MS); type: in vivo; conditions: human, plasma, oral, co-medication carbamazepine and phenytoin, read-out: Cminss
From the text: as §1

[4] = parameters: method as in PMID 24332451; conditions: cited from earlier work
[5] = parameters: method as in PMID 16187976; conditions: single 2 mg dose everolimus with verapamil 80 mg three times daily, 16 healthy subjects; cited from earlier work
[6] = test system: renal cancer; parameters: method as in PMID 27279544; conditions: renal cancer patients, second or third-line therapy; cited from earlier work
[7] = parameters: method as in earlier work; conditions: single oral 10 mg dose, cited from earlier work
[8] = test system: breast cancer; parameters: method as in PMID 36188563; conditions: cited from earlier work
[9] = parameters: method as in PMID 25361989; conditions: cited from earlier work
[10] = test system: renal cancer; parameters: method as in PMID 22209391; conditions: cited from earlier work
[11] = parameters: method as in product label; conditions: ref product label, cited from earlier work
[12] = parameters: method as in PMID 15785960; conditions: single 2-mg dose everolimus with erythromycin 500 mg TID for 9 days; cited from earlier work
[13] = parameters: method as in PMID 28762135; conditions: 10 patients, cited from earlier work

## COc1cc2nccc(Oc3ccc(NC(=O)C4(C(=O)Nc5ccc(F)cc5)CC4)cc3)c2cc1OC [cabozantinib]
[1]; cabozantinib 60 mg daily second-line treatment, case patient
  adverse events: hypertension grade I; also recorded: nausea and diarrhea grade I

## NC(=O)N1c2ccccc2C=Cc2ccccc21 [carbamazepine]
[2]
  classification of effect on CYP3A4 metabolism: strong inducers

## CO[C@H]1C[C@@H]2CC[C@@H](C)[C@@](O)(O2)C(=O)C(=O)N2CCCC[C@H]2C(=O)O[C@H]([C@H](C)C[C@@H]2CC[C@@H](OCCO)[C@H](OC)C2)CC(=O)[C@H](C)/C=C(\C)[C@@H](O)[C@@H](OC)C(=O)[C@H](C)C[C@H](C)/C=C/C=C/C=C/1C [everolimus]
[3]; 10 mg BID, everolimus 10 mg BID, a month later
  concentration at 1 month: 8.7 ng/mL
[3]; 10 mg BID, everolimus 10 mg BID, two weeks later
  concentration at 2 weeks: 10.6 ng/mL
[3]; 10 mg QD, everolimus 10 mg QD fasted, four weeks after starting treatment
  concentration at 4 weeks: 3.7 ng/mL
[3]; 15 mg daily (10 mg + 5 mg), everolimus 15 mg daily (10 mg + 5 mg), four weeks later
  concentration at 4 weeks: 6.4 ng/mL
[4]; 945 patients, lung, renal and neuroendocrine tumors
  mean Cminss: 15.65 ng/mL
[4]; lung cancer
  patients achieving optimal plasmatic concentrations (10-30 ng/ml): 55.2%
[4]; neuroendocrine tumors
  patients achieving optimal plasmatic concentrations (10-30 ng/ml): 45%
[4]; renal cancer
  patients achieving optimal plasmatic concentrations (10-30 ng/ml): 62.9%
[4]; with CYP3A4 inducers
  decrease of Cminss: 7%
[4]; with strong CYP3A4 inhibitors
  increase of Cminss: 10%
[5]
  increase of AUC: 3.5 fold
  increase of Cmax: 2.3 fold
[6]
  median PFS: 3.8 months
[7]; high-fat meal vs fasting
  reduction of AUC: 33%
  reduction of Cmax: 54%
[7]; low-fat meal vs fasting
  reduction of AUC: 22%
  reduction of Cmax: 42%
[8]; breast cancer patients
  median PFS: 13.7 months
[8]
  median Cminss in patients with dose-limiting toxicities: 19 ng/mL
  patients with Cminss below 10 ng/ml: 50%
[9]; before fenofibrate
  plasma concentration: 10.1 ng/mL
[9]; with fenofibrate
  plasma concentration: 4.2 ng/mL
[10]; renal cancer patients, comparison group before the drop (earlier line)
  median PFS: 5.4 months
[10]; third line, previously treated with two anti-VEGFR tyrosine kinase inhibitor
  median PFS: 4 months
[11]; oral
  time to peak concentration: 1.3 to 1.8 h
[11]
  time to steady state: 7 to 14 days
[12]
  increase of AUC: 4.4 fold
  increase of Cmax: 2.0 fold
[13]; 5 mg twice daily
  AUC: 436 ng·h/mL
  maximum concentration (Cmax): 40.3 ng/mL
  minimum steady-state concentration (Cminss): 13.7 ng/mL
[13]; 10 mg once daily
  AUC: 435 ng·h/mL
  maximum concentration (Cmax): 61.5 ng/mL
  minimum steady-state concentration (Cminss): 9.6 ng/mL
[1]; case patient, everolimus third line RCC
  PFS: 3.7 months
[1]; during everolimus treatment
  toxicities: no relevant toxicities were observed
[1]; during everolimus treatment, third line RCC
  response to treatment: stable disease; also recorded: stabilization disease
[1]; everolimus 10 mg QD, four weeks after starting treatment
  toxicities: no toxicities
[1]; everolimus 15 mg daily, four weeks later
  toxicities: without relevant toxicities

## O=C1NC(=O)C(c2ccccc2)(c2ccccc2)N1 [phenytoin]
[2]
  classification of effect on CYP3A4 metabolism: strong inducers

## Nivolumab
[1]; nivolumab first-line treatment, case patient
  adverse events: dry mouth, grade II anorexia and grade I astheny; also recorded: no immune-mediated toxicities
